In patent EP4458352A1, “EICOSAPENTAENOIC ACID ESTER DERIVATIVES FOR THE TREATMENT OF OBESITY” (Technische Universität Dresden, priority 2023, dated 2024):

How the values were obtained:
[1] = test system: NCI-H295R cells; assay: Steroid production in forskolin-treated NCI-H295R cells treated with SC-26196; format: cell-based, Human; conditions: FADS2 inhibition (SC-26196)
Description: NCI-H295R cells (obtained from ATCC Cat# CRL-2128) were maintained in DMEM/F12 medium supplemented with 2.5 % Nu-Serum type I (Corning), 1 % Insulin Transferrin Selenium (ITS; Gibco), 50 U/mL penicillin and 50 µg/mL streptomycin. They were treated for 18 h with 10 µM SC-26196 or DMSO. In some experiments, NCI-H295R cells were treated or not for 48 h 66 µM EPA and in the last 24 h they were stimulated or not with forskolin (10 µM; Sigma-Aldrich).
Steroid hormones in plasma and cell culture supernatants were analyzed by LC-MS/MS as previously described (71). Fifty to hundred µL plasma or cell culture supernatants were extracted by solid phase extraction using positive pressure, followed by a dry-down under gentle stream of nitrogen. Residues were reconstituted in 100 µL of the initial LC mobile phase and 10 µL were injected for detection by the triple quadrupole mass spectrometer in multiple reaction-monitoring scan mode using positive electrospray ionization. Quantification of steroid concentrations was done by comparisons of ratios of analyte peak areas to respective peak areas of stable isotope labeled internal standards obtained in samples to those of calibrators.

[2] = test system: primary adrenocortical cultures; assay: Medulla explant-conditioned medium on primary adrenocortical cell cultures, steroids by LC-MS/MS; format: cell-based, WT C57BL/6J mice
Description: Medullas were isolated from WT C57BL/6J mice and transferred into DMEM/F12 medium. Six hours later the medulla explant supernatants were collected and applied onto adrenocortical cell cultures. These were previously treated for 6 h with SC-26196 (10 µM) or DMSO. SC-26196 or DMSO were re-added and adrenocortical cells were incubated for another 18 h until supernatants were collected for steroid measurement. In other experiments, medulla explants were treated for 6 h with SC-26196 (10 µM) or DMSO, washed thoroughly and left another 18 h in culture. Their supernatant was then applied on adrenocortical cell cultures and 8 h later supernatants of the latter were collected and analyzed by LC-MS/MS.
Steroid hormones in plasma and cell culture supernatants were analyzed by LC-MS/MS as previously described (71). Fifty to hundred µL plasma or cell culture supernatants were extracted by solid phase extraction using positive pressure, followed by a dry-down under gentle stream of nitrogen. […] Quantification of steroid concentrations was done by comparisons of ratios of analyte peak areas to respective peak areas of stable isotope labeled internal standards obtained in samples to those of calibrators.

[3] = test system: primary adrenocortical cells; assay: Flow cytometry with Mitotracker Green and TMRE in primary adrenocortical cells treated with SC-26196; format: cell-based, WT C57BL/6J mice; conditions: SC-26196 10 µM, 18 h vs DMSO; n=6
Description: Adrenocortical cells (CD31-CD45-) were treated for 18 h with DMSO or SC-26196 (10 µM) and were then incubated with Mitotracker Green (0.25 µM; Invitrogen), TMRE (2.5 µM; Thermofisher), for 30 min at 37°C in FACS buffer (0.5 % BSA, 2 mM EDTA in PBS) in dark. Live cells were selected by DAPI staining. FACS was performed using LSR Fortessa X20 flow cytometer and data were analyzed with the FlowJo software.

[4] = test system: adrenal glands of mice fed a HFD; assay: FFA measurement (HPLC-MS) in adrenal glands of HFD mice with or without SC-26196; format: in vivo, WT C57BL/6J mice; conditions: HFD with vs without SC-26196; n=8-10 mice per group
Description: (§1) Six weeks-old male WT C57BL/6J mice were fed for 20 weeks a LFD (D12450B, Research Diets, NJ, USA) or a HFD (D12492, Research Diets, NJ, USA). In some experiments, WT C57BL/6J mice were fed for 8 weeks a HFD and for another 8 weeks a HFD supplemented with SC-26196 (Biorbyt Ltd). SC-26196 was mixed in the HFD at a concentration of 625 mg/kg of diet corresponding to approx. 100 mg/kg of animal weight. In other experiments WT mice were fed for 10 weeks a HFD and for another 10 weeks a HFD supplemented with icosapent ethyl (Vascepa). The content of Vascepa capsules was mixed by Research Diets with the diet at a concentration of 1.125 g/kg icosapent ethyl (corresponding to approx. 180 mg/kg of animal weight). Mice were weighed every week. Glucose and insulin tolerance tests were performed as previously described (20, 21). Three to five mg of hair (2-3 mm close to the skin on the back of the mice) were cut while gently holding the mice without anaesthesia.
Frozen adrenal glands were homogenized in 200 µL PBS-buffer. Lipids were extracted from adrenal lysates or supernatants in chloroform/methanol (Folch's protocol). The extract was evaporated to dryness under stream of nitrogen at 40 °C. The residue was dissolved in 100 µL ethanol. For FFA 50 µL were used. […] The quantification was performed with individual calibration curves using deuterated standards (Cayman Chemical, Ann Arbor, MI).

[5] = test system: HFD mice; assay: Hair corticosteroid levels (LC-MS/MS) in HFD mice given dietary SC-26196; format: in vivo, WT C57BL/6J mice
Description: as §1
Corticosterone and 11-dehydrocorticosterone in hair were extracted with methanol as described elsewhere. In brief, hair (3-5 mg) was washed by addition of 2.5 mL isopropanol. After 3 minutes the isopropanol was decanted and hair samples were dried in a fume hood. After drying, hair samples were extracted in 1.8 mL methanol that contained the internal standard mixtures for 18 h at room temperature. Finally, the methanolic extract was dried down, followed by reconstitution in respective mobile phase and analysis by LC-MS/MS as previously described with minor modifications. […] Corticosterone and 11-dehydrocorticosterone were detected by using the multi reaction monitoring scan mode with respective quantifier ions of 347.1->329.2 and 345.1->121.1, and qualifier ions of 347.1->90.9 and 345.1->242.3. […] Quantification of steroid hormones was achieved by comparisons of ratios of analyte peak areas to internal standard peak areas observed in samples to those in calibrators. Measured steroid concentrations were normalized to sample weights.

[6] = 6 weeks after SC-26196 treatment start, HFD containing 0.625 g/kg SC-26196 vs control, n=8-10

N#CC(CCCN1CCN(/N=C/c2cccnc2)CC1)(c1ccccc1)c1ccccc1 [SC-26196]
11-deoxycortisol production [1]: reduced
progesterone production [1]: reduced
steroid synthesis in cells receiving medulla-conditioned medium ([2]; adrenocortical cells treated 6 h with SC-26196 10 µM, then conditioned medium for another 18 h, n=4-6): diminished steroid synthesis
increase of progesterone, 11-dehydrocorticosterone and corticosterone production by medulla-conditioned supernatants ([2]; medulla explants treated 6 h with SC-26196 10 µM, washed, 18 h culture, supernatant on adrenocortical cells 8 h, n=8): attenuated
mitochondrial load (Mitogreen staining) [3]: decreased
mitochondrial membrane potential (TMRE staining) [3]: decreased
free PUFA, including ARA, levels in the adrenal glands [4]: reduced
levels of 11-dehydrocorticosterone in newly-grown hair ([5]; 3 weeks after SC-26196 treatment start, HFD containing 0.625 g/kg SC-26196 (approx. 100 mg/kg of animal weight) vs control): reduced
11-dehydrocorticosterone levels in the hair [5, 6]: reduced
corticosterone levels in the hair [5, 6]: reduced
